MTD data for one compound are collected here from US5395611A, “Phenolic amine depigmenting and antimelanoma agents” (The Governors of the University of Alberta, priority 1992, dated 1995).

This data set can be described thus: in vivo. To be noted: mouse, ip. Here is the method: 3:1-85 1972. In accordance with this Protocol, ten to fifteen mice were used in each test group. They were weighed and randomized at day one after s.c. inoculation of B16 melanoma cells. From day five, the phenolic melanin precursors were administered i.p. daily for nine days. The test compounds were dissolved in normal saline, and sterilized by heating to 100° C. for 2 minutes. […] They were administered j.p. with the following doses: 400 mg/Kg - 4-S-CAP; 200 to 300 mg/Kg - 4-S-CAP; and 200 to 1200 mg/Kg - N-Ac-4-S-CAP. A catalytic amount of L-dopa, 25 mg/Kg and antidecarboxylase, carbidopa, 400 mg/Kg, were also administered. Carbidopa was given one hour prior to L-dopa administration. DTIC (NSC 4538) was used as a control drug at a dose of 60 mg/Kg. Acute toxicity of 4-S-CP and 4-S-CAP was evaluated from 100 to 1600 mg/Kg.
The B16 mouse melanoma was maintained by s.c. inoculation of tumour cells into the back of C57BL7J mice (5 to 6 weeks, female). […] Briefly, excised tumours were homogenized in normal saline. The homogenized tumour cells were then passed through a sterile 80 mesh stainless steel screen, washed with normal saline, centrifuged (500 g. for 10 minutes) and resuspended in normal saline. Suspensions of viable melanoma cells at the concentration of 1×10^6 per 0.1 ml were inoculated s.c. into both the right and left inguinal areas of C57BL/6J mice (female, 5 to 6 weeks old, 18 to 20 gm).

With `NCCSc1ccc(O)cc1` [4-S-CAP, 4-S-cysteaminylphenol, reference compound], the MTD lay within 200 to 300 mg/kg.
